# From ChEMBL document CHEMBL5244248, “A novel long-acting oxyntomodulin analogue eliminates diabetes and obesity in mice” (Eur J Med Chem, 2020)
# Numbered stars: 1 amine (or outer) side, 2 acyl side, 3 side chain; on linkers, the order of the positions; unused ones are H or OH. Square brackets hold non-standard residues; d marks the D form. Peptide text beside a SMILES is read from it. X1 = CC(C)(CN([C@@H](CCC(N)=O)C(=O)[*:2])[*:1])NC(=O)[C@@H](N)Cc1c[nH]cn1; Aib = CC(C)(N)C(=O)O
# Key:
# [1] = tested on: INS1; assay: Anti-apoptotic activity in rat INS1 cells assessed as reduction in cytokine-induced cell apoptosis at 100 nM treated for 1 hr prior to TNF-alpha and IL-1beta challenge; format: functional
# [2] = biological target: T1, Glucagon-like peptide 1 receptor (Mus musculus, UniProt O35659); assay: Agonist activity at mouse GLP-1R expressed in CHO cells assessed as increase in cAMP accumulation; format: cell-based
# T1 sequence (O35659 whole entry): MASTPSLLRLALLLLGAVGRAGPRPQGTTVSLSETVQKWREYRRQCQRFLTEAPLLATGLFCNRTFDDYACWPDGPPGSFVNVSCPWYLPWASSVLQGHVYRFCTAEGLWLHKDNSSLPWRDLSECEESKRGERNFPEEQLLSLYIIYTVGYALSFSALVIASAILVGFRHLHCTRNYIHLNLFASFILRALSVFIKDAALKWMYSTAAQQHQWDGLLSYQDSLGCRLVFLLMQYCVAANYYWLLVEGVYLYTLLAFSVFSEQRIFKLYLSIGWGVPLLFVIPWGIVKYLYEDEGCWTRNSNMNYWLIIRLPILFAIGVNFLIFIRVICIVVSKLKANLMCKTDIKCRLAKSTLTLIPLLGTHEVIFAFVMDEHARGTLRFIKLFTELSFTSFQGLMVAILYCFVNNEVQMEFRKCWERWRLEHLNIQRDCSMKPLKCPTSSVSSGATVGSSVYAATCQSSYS
# [3] = biological target: Glucagon receptor (Mus musculus, UniProt Q61606); assay: Agonist activity at mouse GCGR expressed in CHO cells assessed as increase in cAMP accumulation; format: cell-based
# Sequence of Glucagon receptor (Q61606 whole entry): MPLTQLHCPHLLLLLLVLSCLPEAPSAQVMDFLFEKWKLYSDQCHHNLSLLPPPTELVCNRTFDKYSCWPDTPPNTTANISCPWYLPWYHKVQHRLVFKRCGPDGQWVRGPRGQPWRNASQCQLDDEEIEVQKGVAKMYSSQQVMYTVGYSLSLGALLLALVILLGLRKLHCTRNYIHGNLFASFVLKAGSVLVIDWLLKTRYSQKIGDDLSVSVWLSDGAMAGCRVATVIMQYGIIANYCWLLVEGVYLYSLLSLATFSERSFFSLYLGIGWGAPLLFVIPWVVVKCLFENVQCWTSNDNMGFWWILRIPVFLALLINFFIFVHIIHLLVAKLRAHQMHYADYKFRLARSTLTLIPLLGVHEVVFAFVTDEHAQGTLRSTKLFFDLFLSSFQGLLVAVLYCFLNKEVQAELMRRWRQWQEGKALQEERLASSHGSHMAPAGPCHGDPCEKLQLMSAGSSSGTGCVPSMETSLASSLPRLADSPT
Compound,inhibition at 0.1 µM [1],EC50 [2],EC50 [3]
CC[C@H](C)[C@H](NC(=O)[C@H](Cc1ccccc1)NC(=O)[C@H](CCC(=O)O)NC(=O)[C@H](CCCCN)NC(=O)[C@H](C)NC(=O)[C@H](C)NC(=O)[C@H](CCC(N)=O)NC(=O)CNC(=O)[C@H](CCC(=O)O)NC(=O)[C@H](CC(C)C)NC(=O)[C@H](Cc1ccc(O)cc1)NC(=O)[C@H](CO)NC(=O)[C@H](CO)NC(=O)[C@@H](NC(=O)[C@H](CC(=O)O)NC(=O)[C@H](CO)NC(=O)[C@@H](NC(=O)[C@H](Cc1ccccc1)NC(=O)[C@@H](NC(=O)CNC(=O)[C@H](CCC(=O)O)NC(=O)[C@H](C)NC(=O)[C@@H](N)Cc1cnc[nH]1)[C@@H](C)O)[C@@H](C)O)C(C)C)C(=O)N[C@@H](C)C(=O)N[C@@H](Cc1c[nH]c2ccccc12)C(=O)N[C@@H](CC(C)C)C(=O)N[C@H](C(=O)N[C@@H](CCCCN)C(=O)NCC(=O)N[C@@H](CCCNC(=N)N)C(=O)O)C(C)C,40.4%,,
CC[C@H](C)[C@H](NC(=O)[C@H](CC(N)=O)NC(=O)[C@H](CC(N)=O)NC(=O)[C@H](CCCNC(=N)N)NC(=O)[C@H](CC(N)=O)NC(=O)[C@H](CCCNC(=N)N)NC(=O)[C@H](CCCCN)NC(=O)[C@@H](NC(=O)[C@H](CC(N)=O)NC(=O)[C@H](CCSC)NC(=O)[C@H](CC(C)C)NC(=O)[C@H](Cc1c[nH]c2ccccc12)NC(=O)[C@H](CCC(N)=O)NC(=O)[C@@H](NC(=O)[C@H](Cc1ccccc1)NC(=O)[C@H](CCC(=O)O)NC(=O)[C@H](CCCCN)NC(=O)[C@H](C)NC(=O)[C@H](CCCNC(=N)N)NC(=O)[C@H](CCCCN)NC(=O)[C@H](CCC(=O)O)NC(=O)[C@H](CC(=O)O)NC(=O)[C@H](CC(C)C)NC(=O)[C@H](Cc1ccc(O)cc1)NC(=O)[C@H](CCCCN)NC(=O)[C@H](CO)NC(=O)[C@H](Cc1ccc(O)cc1)NC(=O)[C@H](CC(=O)O)NC(=O)[C@H](CCC(=O)O)NC(=O)[C@@H](NC(=O)[C@H](Cc1ccccc1)NC(=O)[C@@H](NC(=O)CNC(=O)[C@H](CCC(N)=O)NC(=O)C(C)(C)NC(=O)[C@@H](N)Cc1c[nH]cn1)[C@@H](C)O)[C@@H](C)O)C(C)C)[C@@H](C)O)C(=O)N[C@@H](C)C(N)=O (H-H[Aib]QGTFTEDYSKYLDEKRAKEFVQWLMNTKRNRNNIA-NH2),,17.6 nM,9.03 nM
CC[C@H](C)[C@H](NC(=O)[C@H](CC(N)=O)NC(=O)[C@H](CC(N)=O)NC(=O)[C@H](CCCNC(=N)N)NC(=O)[C@H](CC(N)=O)NC(=O)[C@H](CCCNC(=N)N)NC(=O)[C@H](CCCCN)NC(=O)[C@@H](NC(=O)[C@H](CC(N)=O)NC(=O)[C@H](CCSC)NC(=O)[C@H](CC(C)C)NC(=O)[C@H](Cc1c[nH]c2ccccc12)NC(=O)[C@H](CCC(=O)O)NC(=O)[C@@H](NC(=O)[C@H](Cc1ccccc1)NC(=O)[C@H](CCC(=O)O)NC(=O)[C@H](CCCCN)NC(=O)[C@H](C)NC(=O)[C@H](CCCNC(=N)N)NC(=O)[C@H](CCCCN)NC(=O)[C@H](CCC(=O)O)NC(=O)[C@H](CC(=O)O)NC(=O)[C@H](CC(C)C)NC(=O)[C@H](Cc1ccc(O)cc1)NC(=O)[C@H](CCCCN)NC(=O)[C@H](CO)NC(=O)[C@H](Cc1ccc(O)cc1)NC(=O)[C@H](CC(=O)O)NC(=O)[C@H](CO)NC(=O)[C@@H](NC(=O)[C@H](Cc1ccccc1)NC(=O)[C@@H](NC(=O)CNC(=O)[C@H](CCC(N)=O)NC(=O)C(C)(C)NC(=O)[C@@H](N)Cc1c[nH]cn1)[C@@H](C)O)[C@@H](C)O)C(C)C)[C@@H](C)O)C(=O)N[C@@H](C)C(N)=O (H-H[Aib]QGTFTSDYSKYLDEKRAKEFVEWLMNTKRNRNNIA-NH2),,1.36 nM,1.44 nM
CC[C@H](C)[C@H](NC(=O)[C@H](CC(N)=O)NC(=O)[C@H](CC(N)=O)NC(=O)[C@H](CCCNC(=N)N)NC(=O)[C@H](CC(N)=O)NC(=O)[C@H](CCCNC(=N)N)NC(=O)[C@H](CCCCN)NC(=O)[C@@H](NC(=O)[C@H](CC(N)=O)NC(=O)[C@H](CCSC)NC(=O)[C@H](CC(C)C)NC(=O)[C@H](Cc1c[nH]c2ccccc12)NC(=O)[C@H](CCC(N)=O)NC(=O)[C@@H](NC(=O)[C@H](Cc1ccccc1)NC(=O)[C@H](CC(=O)O)NC(=O)[C@H](CCCCN)NC(=O)[C@H](C)NC(=O)[C@H](CCCNC(=N)N)NC(=O)[C@H](CCCNC(=N)N)NC(=O)[C@H](CCC(=O)O)NC(=O)[C@H](CC(=O)O)NC(=O)[C@H](CC(C)C)NC(=O)[C@H](Cc1ccc(O)cc1)NC(=O)[C@H](CCCCN)NC(=O)[C@H](CO)NC(=O)[C@H](Cc1ccc(O)cc1)NC(=O)[C@H](CC(=O)O)NC(=O)[C@H](CO)NC(=O)[C@@H](NC(=O)[C@H](Cc1ccccc1)NC(=O)[C@@H](NC(=O)CNC(=O)[C@H](CCC(N)=O)NC(=O)C(C)(C)NC(=O)[C@@H](N)Cc1c[nH]cn1)[C@@H](C)O)[C@@H](C)O)C(C)C)[C@@H](C)O)C(=O)N[C@@H](C)C(N)=O (H-H[Aib]QGTFTSDYSKYLDERRAKDFVQWLMNTKRNRNNIA-NH2),,1.59 nM,3.41 nM
CC[C@H](C)[C@H](NC(=O)[C@H](CC(N)=O)NC(=O)[C@H](CC(N)=O)NC(=O)[C@H](CCCNC(=N)N)NC(=O)[C@H](CC(N)=O)NC(=O)[C@H](CCCNC(=N)N)NC(=O)[C@H](CCCCN)NC(=O)[C@@H](NC(=O)[C@H](CC(N)=O)NC(=O)[C@H](CCSC)NC(=O)[C@H](CC(C)C)NC(=O)[C@H](Cc1c[nH]c2ccccc12)NC(=O)[C@H](CCC(N)=O)NC(=O)[C@@H](NC(=O)[C@H](Cc1ccccc1)NC(=O)[C@H](CC(=O)O)NC(=O)[C@H](CCC(N)=O)NC(=O)[C@H](C)NC(=O)[C@H](CCCNC(=N)N)NC(=O)[C@H](CCCNC(=N)N)NC(=O)[C@H](CCC(=O)O)NC(=O)[C@H](CC(=O)O)NC(=O)[C@H](CC(C)C)NC(=O)[C@H](Cc1ccc(O)cc1)NC(=O)[C@H](CCCCN)NC(=O)[C@H](CO)NC(=O)[C@H](Cc1ccc(O)cc1)NC(=O)[C@H](CC(=O)O)NC(=O)[C@H](CO)NC(=O)[C@@H](NC(=O)[C@H](Cc1ccccc1)NC(=O)[C@@H](NC(=O)CNC(=O)[C@H](CCC(N)=O)NC(=O)C(C)(C)NC(=O)[C@@H](N)Cc1c[nH]cn1)[C@@H](C)O)[C@@H](C)O)C(C)C)[C@@H](C)O)C(=O)N[C@@H](C)C(N)=O (H-H[Aib]QGTFTSDYSKYLDERRAQDFVQWLMNTKRNRNNIA-NH2),,3.47 nM,6.14 nM
CSCC[C@H](NC(=O)[C@H](CC(C)C)NC(=O)[C@H](Cc1c[nH]c2ccccc12)NC(=O)[C@H](CS)NC(=O)[C@@H](NC(=O)[C@H](Cc1ccccc1)NC(=O)[C@H](CCC(=O)O)NC(=O)[C@H](CCCCN)NC(=O)[C@H](C)NC(=O)[C@H](CCCNC(=N)N)NC(=O)[C@H](CCCCN)NC(=O)[C@H](CCC(=O)O)NC(=O)[C@H](CC(=O)O)NC(=O)[C@H](CC(C)C)NC(=O)[C@H](Cc1ccc(O)cc1)NC(=O)[C@H](CCCCN)NC(=O)[C@H](CO)NC(=O)[C@H](Cc1ccc(O)cc1)NC(=O)[C@H](CC(=O)O)NC(=O)[C@H](CO)NC(=O)[C@@H](NC(=O)[C@H](Cc1ccccc1)NC(=O)[C@@H](NC(=O)CNC(=O)[C@H](CCC(N)=O)NCC(C)(C)NC(=O)[C@@H](N)Cc1c[nH]cn1)[C@@H](C)O)[C@@H](C)O)C(C)C)C(=O)N[C@@H](CC(N)=O)C(=O)N[C@H](C(=O)NCC(=O)N1CCC[C@H]1C(=O)N[C@@H](CO)C(=O)N[C@@H](CO)C(=O)NCC(=O)N[C@@H](C)C(=O)N1CCC[C@H]1C(=O)N[C@@H](CO)C(N)=O)[C@@H](C)O (H-[X1]GTFTSDYSKYLDEKRAKEFVCWLMNTGPSSGAPS-NH2),,0.45 nM,0.68 nM
